According to patent US20140045776A1, “METHOD FOR INCREASING THE SHELF LIFE OF FOOD PRODUCTS” (GALACTIC S.A., priority 2011, published 2014):

Test system: aerobic bacteria
Assay: Shelf life of minced meat stored at 4° C. (total number of aerobic bacteria)
Type: cell-based
Protocol: The usual formulation of a minced meat was prepared with the following ingredients:
Preservatives were added to this basic formulation, the maximum percentage being 4% (of a fermentate having a main-salt concentration of 40%) compared with the whole of the meat-based food product.
The minced meats are prepared according to the following procedure:
a) Preparing of the meat: the meat and fat are cut into small pieces and minced using a mincer having a 4 mm mincing grille. The meat, fat and other ingredients are then disposed by means of a mixer of the Kenwood type having a type K stirring blade. Operate the stirring for 30 seconds (minimum power).
b) Sampling: the product thus obtained is divided into 100 g samples and placed in plastic bags.
c) Storage: the products obtained are packaged in stretch film and stored at a temperature of 4° C.±1° C. for 10 days.
Twice a week, the pH, the activity of the water (Aw) and total number of aerobic bacteria were evaluated on the samples.
The shelf life of the product prepared without a preservative (reference) was compared with that of the product containing standard potassium lactate—Galoflow PL (Galactic SA) and that of the product containing the fermentate obtained by sugar fermentation by Bacillus coagulans spp. […] The results are set out in graph 1. […]

CC(O)C(=O)[O-].[K+] (centres unmarked) [potassium lactate]
preservative effect on the meat matrix (Example 2, minced meat, each at a concentration not impacting on the taste (0.05% potassium acetate, 2% potassium lactate), graph 2): preservative effect superior to that of potassium acetate | effect on shelf life of the product (Example 3, minced meat, potassium lactate with main-salt concentration 60% at various concentrations, 4° C., graph 3): increases the shelf life of the product
